Measured values reported in patent US4885307A, “Derivatives of 1-arylsulphonyl-1,5-dihydro-2H-pyrrol-2-one, and compositions containing them” (Roussel Uclaf, priority 1987, dated 1989).

Tested on: male mice (Charles Rivers CD1)
Assay: Learning and memorizing: anti-amnesiac effect on electric shock-induced retrograde amnesia (two-compartment luminous/dark box avoidance)
Format: in vivo
Conditions: for Percentage increase in latency time in comparison with the controls: 3 hours after treatment, * = statistically different in comparison with controls; for anti-amnesic activity: at doses between 50 and 200 mg/kg, oral route
Text: There were used male mice (Charles Rivers CD1) weighing 25-30 g. The animals were placed in the luminous part of a box with two compartments communicating by an opening [F. Barzaghi and G. Galliani, Brit. J. Pharmacol. 86, p.
At the instant when the mouse passes from the luminous compartment to the dark compartment, the opening closes and it is immediately punished by an electric discharge to the paws. The animal submitted to this procedure learns to memorize the punishment. In fact, if it is put back in the luminous compartment, it will thus avoid crossing the opening and reentering the dark compartment.
In order to induce a retrograde amnesia, the animals are submitted immediately after learning to an electric shock. After the electric shock, the products are administered by oral route at different doses.
There were used from 10 to 50 animals per dose.
The anti-amnesiac effect of the products is evaluated 3 hours after the treatment, using the same procedure as that utilized for the acquisition.
The time taken by the animal to return to the dark chamber (time limit 180 seconds) is used as evaluation parameter.
The active products are those which cause a significant increase in the latency time with a bell-shaped dose-response curve.
The results are expressed as percentages of the increase of the latency time in comparison with the corresponding controls.

| Structure (SMILES) | Percentage increase in latency time in comparison with the controls (50 mg/kg per os) [%] | Percentage increase in latency time in comparison with the controls (100 mg/kg per os) [%] | Percentage increase in latency time in comparison with the controls (200 mg/kg per os) [%] | anti-amnesic activity |
| --- | --- | --- | --- | --- |
| CCCCOC1C=CC(=O)N1S(=O)(=O)c1ccccc1 (stereo not drawn) [Example 4, 1-benzenesulphonyl-5-n-butoxy-1,5-dihydro-2H-pyrrol-2-one] | 54 | 96 | 79 | have shown an anti-amnesic activity |
| CCCCCOC1C=CC(=O)N1S(=O)(=O)c1ccccc1 (stereo not drawn) [Example 6, 1-benzenesulphonyl-1,5-dihydro-5-n-pentyloxy-2H-pyrrol-2-one] | 73 | 92 | 76 | have shown an anti-amnesic activity |
| CCCCOC1C=CC(=O)N1S(=O)(=O)c1cccc(C(F)(F)F)c1 (stereo not drawn) [Example 12, 1-(3-trifluoromethyl-benzenesulphonyl)-5-n-butyloxy-1,5-dihydro-2H-pyrrol-2-one] | 20 | 75 | 92 | have shown an anti-amnesic activity |
| NC(=O)CN1CCCC1=O [PIRACETAM, reference compound] | 10 | 48 | 20 |  |
